Test results published in article PMC10758095, “Selectively targeting BCL6 using a small molecule inhibitor is a potential therapeutic strategy for ovarian cancer” (International Journal of Biological Sciences, 2024).

Molecular target: T1, BCL6 (Homo sapiens, UniProt P41182)
T1 construct: BTB domain
Test: SPR (also HTRF BCL6-BTB/SMRT disruption)
Format: binding

- Kd: 2240 nM
SMILES: C[C@@H]1CN(c2ncc(F)c(Nc3ccc4oc(=O)ccc4c3)n2)C[C@H](C)N1 [WK369]
